From patent publication US20260078103A1, “ISOQUINOLONES AS PI3K INHIBITORS” (OnKure, Inc., priority 2022, published 2026)
Where two headings read alike, the source gives them in different places.

Legend:
Type in all cases: cell-based
[1] = tested on: T47D cells expressing mutant PI3Ka (H1047R); test: In vitro cell proliferation, T47D cells (CellTiter-Glo); details: inhibition of proliferation, read-out: Avg T-47D EC50
Procedure, shortened: (§1)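 1,500 cells/well seeded onto pre-stamped 10-pt dilution plates; T47D in RPMI + 10% FBS + insulin 0.2 units/mL, SKBR3 in McCoys 5a + 10% FBS. 72 h, 37 °C, 5% CO2. CTG readout. 0% = 0.1% DMSO, 100% = 10 uM Alpelisib; sigmoidal fit gives EC50.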

[2] = tested on: SKBR3 cells express WT PI3Ka; test: In vitro cell proliferation, SKBR3 cells (CellTiter-Glo); details: inhibition of proliferation
Procedure, shortened: as §1

[3] = tested on: phosphorylation of AKT (pAKT) in T47D cells expressing mutant PI3Ka (H1047R); test: In vitro cell pAKT (Ser473) HTRF, T47D cells; details: cellular pAKT, T47D cells, mutant PI3Ka (H1047R), 6 hours, read-out: Avg T-47D IC50
Procedure, shortened: (§2)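 Cells seeded on plates pre-stamped with 10-point compound dilutions, then grown 6 h at 37 °C (T47D in RPMI/10% FBS/insulin; SKBR3 in McCoy's 5a/10% FBS). Lysates read for pAKT Ser473 by HTRF after overnight antibody incubation. Inhibition normalised to 0.1% DMSO and 10 uM alpelisib; IC50 by four-parameter fit.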

[4] = tested on: phosphorylation of AKT (pAKT) in SKBR3 cells express WT PI3Ka; test: In vitro cell pAKT (Ser473) HTRF, SKBR3 cells; details: cellular pAKT
Procedure, shortened: as §2

SMILES	EC50 ([1]; Homo sapiens, T47D, 72 h) [nM]	EC50 ([2]; Homo sapiens, SK-BR-3, 72 h) [nM]	IC50 ([3]; Homo sapiens, T47D, 6 h) [nM]	IC50 ([4]; Homo sapiens, SK-BR-3, 6 h) [nM]	EC50 ([1]; 72 hours) [nM]	EC50 ([2]; 72 hours) [nM]	IC50 [3] [nM]	IC50 ([4]; 6 hours) [nM]
C[C@@H](Nc1cccc(F)c1C(=O)O)c1cc(F)cc2c(=O)n(C)c(N3CCN(c4cnn(C(C)(C)C#N)c4)CC3)cc12 [Example 424]	1 to 500	> 15000	1 to 500	2000 to 15000	–	–	–	–
C[C@@H](Nc1cccc(F)c1C(=O)O)c1cc(F)cc2c(=O)n(C)c(N3CCN(c4nccs4)CC3)cc12 [Example 429]	1 to 500	> 15000	1 to 500	> 15000	–	–	–	–
Cc1cc([C@@H](C)Nc2ccccc2C(=O)O)c2cc(N3CCn4cc(C)nc4C3)n(C)c(=O)c2c1 [Example 434]	1 to 500	> 15000	1 to 500	> 15000	–	–	–	–
Cc1cc([C@@H](C)Nc2cccc(F)c2C(=O)O)c2cc(N3CCn4c(cnc4C)C3)n(C)c(=O)c2c1 [Example 438]	–	–	–	–	> 15000	> 15000	> 15000	> 15000
Cc1cc([C@@H](C)Nc2cccc(F)c2C(=O)O)c2cc(N3CCc4c(cnn4C)C3)n(C)c(=O)c2c1 [Example 439]	–	–	–	–	500 to 2000	> 15000	500 to 2000	> 15000
Cc1ncc(F)cc1-c1ncc(-c2cc3c([C@@H](C)Nc4cccc(F)c4C(=O)O)cc(F)cc3c(=O)n2C)cc1F [Example 440]	1 to 500	> 15000	1 to 500	2000 to 15000	–	–	–	–
C[C@@H](Nc1cccc(F)c1C(=O)O)c1cc(F)cc2c(=O)n(C)c(-c3ccc(OCC(F)(F)F)nc3)cc12 [Example 441]	–	–	–	–	500 to 2000	> 15000	1 to 500	> 15000
Cc1cc([C@@H](C)Nc2ccccc2C(=O)O)c2cc(N3CCn4c(nnc4C4CC4)C3)n(C)c(=O)c2c1 [Example 445]	2000 to 15000	> 15000	2000 to 15000	> 15000	–	–	–	–
Cc1cc([C@@H](C)Nc2ccccc2C(=O)O)c2cc(N3CCn4nc(C)cc4C3)n(C)c(=O)c2c1 [Example 446]	1 to 500	> 15000	1 to 500	> 15000	–	–	–	–
CC(Nc1ccccc1C(=O)O)c1cc(F)cc2c(=O)n(C)c(-c3ccc(OC4CC(F)C4)nc3)cc12 (stereo not drawn) [Example 447]	–	–	–	–	1 to 500	> 15000	1 to 500	> 15000
CC(Nc1ccccc1C(=O)O)c1cc(F)cc2c(=O)n(C)c(-c3ccc(OC4CC(F)C4)nc3)cc12 (stereo not drawn) [Example 448]	–	–	–	–	1 to 500	> 15000	1 to 500	> 15000
Cc1csc(N2CCN(c3cc4c([C@@H](C)Nc5ccccc5C(=O)O)cc(F)cc4c(=O)n3C)CC2)n1 [Example 453]	1 to 500	2000 to 15000	1 to 500	> 15000	–	–	–	–
C[C@@H](Nc1cccc(F)c1C(=O)O)c1cc(F)cc2c(=O)n(C)c(C3CC3)cc12 [Example 454]	1 to 500	> 15000	1 to 500	> 15000	–	–	–	–
C[C@@H](Nc1ccccc1C(=O)O)c1cc(F)cc2c(=O)n(C)c(C3CC3)cc12 [Example 455]	1 to 500	> 15000	1 to 500	> 15000	–	–	–	–
Cc1ccc(N2CCN(c3cc4c([C@@H](C)Nc5cccc(F)c5C(=O)O)cc(F)cc4c(=O)n3C)CC2)c(C)n1 [Example 456]	1 to 500	2000 to 15000	1 to 500	2000 to 15000	–	–	–	–
CC(Nc1cccc(F)c1C(=O)O)c1cc(F)cc2c(=O)n(C)c(-c3ccc(OCC(F)F)nc3)cc12 (stereo not drawn) [Example 457]	–	–	–	–	1 to 500	> 15000	1 to 500	> 15000
Cc1ccc(N2CCN(c3cc4c(C(C)Nc5ccccc5C(=O)O)cc(F)cc4c(=O)n3C)CC2)c(C)n1 (stereo not drawn) [Example 460]	–	–	–	–	1 to 500	500 to 2000	1 to 500	500 to 2000
C[C@@H](Nc1ccccc1C(=O)O)c1cc(F)cc2c(=O)n(C)c(N3C4CCC3CN(CC(F)(F)F)C4)cc12 [Example 464]	1 to 500	2000 to 15000	1 to 500	2000 to 15000	–	–	–	–
Cc1ncncc1N1CCN(c2cc3c([C@@H](C)Nc4ccccc4C(=O)O)cc(F)cc3c(=O)n2C)CC1 [Example 465]	1 to 500	2000 to 15000	1 to 500	2000 to 15000	–	–	–	–
C[C@@H](Nc1ccccc1C(=O)O)c1cc(F)cc2c(=O)n(C)c(N3CCN(c4nccs4)CC3)cc12 [Example 466]	1 to 500	> 15000	1 to 500	2000 to 15000	–	–	–	–
Cc1cnc(N2CCN(c3cc4c([C@@H](C)Nc5ccccc5C(=O)O)cc(F)cc4c(=O)n3C)CC2)s1 [Example 467]	1 to 500	2000 to 15000	1 to 500	2000 to 15000	–	–	–	–
Cc1ccc(-c2ncc(-c3cc4c([C@@H](C)Nc5ccccc5C(=O)O)cc(F)cc4c(=O)n3C)cc2F)c(C)n1 [Example 472]	1 to 500	2000 to 15000	1 to 500	2000 to 15000	–	–	–	–

The next lines start with the values.

EC50 ([1]; Homo sapiens, T47D, 72 h) [nM]	EC50 ([2]; Homo sapiens, SK-BR-3, 72 h) [nM]	IC50 ([3]; Homo sapiens, T47D, 6 h) [nM]	IC50 ([4]; Homo sapiens, SK-BR-3, 6 h) [nM]	EC50 ([1]; 72 hours) [nM]	EC50 ([2]; 72 hours) [nM]	IC50 [3] [nM]	IC50 ([4]; 6 hours) [nM]	SMILES
1 to 500	> 15000	1 to 500	> 15000	–	–	–	–	Cc1cc([C@@H](C)Nc2ccccc2C(=O)O)c2cc(-c3cnc(CC(F)(F)F)cn3)n(C)c(=O)c2c1 [Example 422]
500 to 2000	> 15000	1 to 500	> 15000	–	–	–	–	Cc1cc([C@@H](C)Nc2ccccc2C(=O)O)c2cc(N3CCn4cc(C(F)(F)F)nc4C3)n(C)c(=O)c2c1 [Example 432]
–	–	–	–	500 to 2000	> 15000	1 to 500	> 15000	Cc1cc([C@@H](C)Nc2ccccc2C(=O)O)c2cc(N3CCn4c(cnc4C(F)(F)F)C3)n(C)c(=O)c2c1 [Example 433]
–	–	–	–	2000 to 15000	> 15000	2000 to 15000	> 15000	Cc1cc([C@@H](C)Nc2ccccc2C(=O)O)c2cc(N3CCn4c(nnc4C(F)(F)F)C3)n(C)c(=O)c2c1 [Example 435]
2000 to 15000	> 15000	2000 to 15000	> 15000	–	–	–	–	Cc1cc([C@@H](C)Nc2ccccc2C(=O)O)c2cc(N3CCn4nncc4C3)n(C)c(=O)c2c1 [Example 436]
1 to 500	> 15000	1 to 500	> 15000	–	–	–	–	C[C@@H](Nc1ccccc1C(=O)O)c1cc(F)cc2c(=O)n(C)c(-c3cnc(OC4CC4)c(F)c3)cc12 [Example 458]
–	–	–	–	1 to 500	2000 to 15000	1 to 500	2000 to 15000	Cc1ncc(-c2ncc(-c3cc4c(C(C)Nc5ccccc5C(=O)O)cc(F)cc4c(=O)n3C)cc2F)cc1F (stereo not drawn) [Example 459]
–	–	–	–	1 to 500	> 15000	1 to 500	> 15000	CC(Nc1ccccc1C(=O)O)c1cc(F)cc2c(=O)n(C)c(-c3ccc(OCC(F)F)nc3)cc12 (stereo not drawn) [Example 462]
–	–	–	–	1 to 500	2000 to 15000	1 to 500	2000 to 15000	Cc1nc(C)c(-c2ncc(-c3cc4c(C(C)Nc5ccccc5C(=O)O)cc(F)cc4c(=O)n3C)cc2F)cc1F (stereo not drawn) [Example 471]
–	–	–	–	1 to 500	> 15000	1 to 500	2000 to 15000	Cc1ccc(-c2ncc(-c3cc4c(C(C)Nc5ccccc5C(=O)O)cc(F)cc4c(=O)n3C)cc2F)cn1 (stereo not drawn) [Example 473]
–	–	–	–	1 to 500	> 15000	1 to 500	> 15000	Cc1cc(C(C)Nc2cccc(F)c2C(=O)O)c2cc(-c3ccc(COC(F)(F)F)nc3)n(C)c(=O)c2c1 (stereo not drawn) [Example 474]
